Test results published in patent US12703851B2, “Cell culture methods” (The University of Massachusetts, priority 2019, dated 2026).
“Also recorded” adds a separate entry of the source.

Key:
Format in all cases: cell-based, Chinese hamster
CHO K-1 = assay: Batch culture spiking of metabolites at end-of-culture concentration; settings: spiked at end-of-culture concentration, 6 days batch culture
Method: CHO K-1 industrial standard batch process: NIH CHO-K1 cell line is cultured for 6 days, with 6 mM glutamine supplement on the inoculation day. The working volume is 30 mL in 125 mL shake flasks, and the inoculation cell density is 0.5 million cells/mL. The parameters for the shaking incubator are: 125 RPM, and 5% CO2.
Cells were exposed to the identified inhibitory metabolites of Table 1 at their end-of-culture concentration for 6 days in batch culture. […] All of the inhibitory metabolites decreased the antibody productivity (FIG. 4).

CHO-K1 cell line = assay: Fed-batch spiking test, IgG glycan profile by HPLC with Glycan Column; settings: for impact on G1F formation: versus control group
Method: Industrial standard Fed-batch process: CHO-K1 cell line is cultured in corresponding media. Feed for 14 days, with 6 mM glutamine supplement on the inoculation day. The working volume is 30 mL in 125 mL shake flasks, and the inoculation cell density is 0.5 million cells/mL. The parameters for the shaking incubator are: 125 RPM, and 5% CO2. The feeding strategy is 10% corresponding feed everyday starting from day 3 to day 13.
In the standard industrial fed-batch process, cells were exposed to the inhibitors for a long period of time. This experiment mimics the therapeutic antibody production process, and spikes the inhibitors at their end-of-culture cellular concentration. ICA was confirmed as a known inhibitor and was used as a positive inhibitor control. Mixture condition excluded ICA and included AA, HICA, CMP, MSA, TRI, NAP. The process lasted for 14 days, and starting from day 6, the cell density under the inhibitor conditions were lower than the negative control batch.
IgG titer was measured by HPLC with a Protein A column. Product quality was quantified by the IgG glycan profile, which was measured by HPLC with a Glycan Column.

CHO-S cells = assay: Inhibitory metabolite accumulation in transiently transfected CHO-S subclones (LC-MS); parameters: dose or concentration left out as unconfirmed; settings: 6 days
Method: FIG. 17A-G are graphs showing inhibitory metabolite accumulation in different subclones. Accumulation concentration of metabolites shown here: FIG. 17A, CMP; FIG. 17B, GMP; FIG. 17C, HICA, FIG. 17D, MSA, FIG. 17E, NAP, FIG. 17F, TAA; and FIG. 17G, TRI. The study was divided into […] unique subclone groups. […] A negative control was included where no plasmid transfection occurred. Each subclone was cultured for 6 days at which time cells and cell culture supernatant were collected. Cells for both the control and transfection subclones were derived from the same culture to eliminate variation in growth cycle and other culture conditions. Quantification of inhibitory metabolites accumulation was performed through LC-MS. Bars, mean±s.e.m.; n=3, *p<0.05, **p<0.01, ***p<0.001. Statistics by two-tailed t-test. LC-MS/MS method for metabolites profiling: Standards of metabolites were purchased from Sigma Aldrich (St. Louis, MO) and used for identification of wasted inhibitor metabolites. Operating parameters and samples preparation protocol were followed to a previously published protocol. Quantification of expression level of transfected gene of interest through qPCR. The expression level of seven different genes transfected into CHO-S cells were evaluated using relative quantification (RQ) compared to the calibrator. The study was divided into eight unique subclone groups. […] A negative control was included in the study where no genetic engineering work involving plasmid transfection occurred. Each subclone was cultured for 6 days. Cells for both the control and transfection subclones were derived from the same culture to eliminate variation in growth cycle and other culture conditions. […] Gene functionality study through metabolic pathway analysis. As mentioned previously, HICA is generated as the downstream metabolite from the metabolism of leucine in mammalian cells, of which cellular biochemical activities are regulated by ADH5 and BCAT1 enzymes. […] A negative control was included in the study where no genetic engineering work involving plasmid transfection occurred.

| SMILES | cell density versus control group (CHO K-1) | impact on G1F formation (CHO-K1 cell line) | decrease in accumulation versus control (CHO-S cells; Bcat1 transfected clone) [%] | decrease in accumulation versus control (CHO-S cells; Hadhb transfected clone) [%] | decrease in accumulation versus control (CHO-S cells; Slc35a1 transfected clone) [%] | decrease in accumulation versus control (CHO-S cells; Got1 transfected clone) [%] | further results |
| --- | --- | --- | --- | --- | --- | --- | --- |
| O=C(O)c1c[nH]c2ccccc12 [ICA, indole-3-carboxylic acid, reference compound] | lower cell density than the control group | higher impact on G1F formation | – | – | – | – | – |
| CC(C)CC(O)C(=O)O (stereo not drawn) [HICA, α-hydroxyisocaproic acid] | – | higher impact on G1F formation | 72.31 | 27.05 | 73.51 | – | decrease in accumulation versus control (CHO-S cells; Adh5 transfected clone): 86.13% |
| O=C(O)C=C(CC(=O)O)C(=O)O [AA, aconitic acid] | lower cell density than the control group | higher impact on G1F formation | – | – | – | – | impact on G2F formation (CHO-K1 cell line; Day 14, versus control group): totally inhibits the G2F formation; also recorded: G2F was not formed |
| CC(CC(=O)O)C(=O)O (centres unmarked) [MSA, methylsuccinic acid] | – | higher impact on G1F formation | – | – | – | – | – |
| Nc1ccn([C@@H]2O[C@H](COP(=O)(O)O)[C@@H](O)[C@H]2O)c(=O)n1 [CMP, cytidine-5′-monophosphate] | lower cell density than the control group | higher impact on G1F formation | – | – | 50.63 | 35.68 | decrease in accumulation versus control (CHO-S cells; Hoga1 transfected clone): 33.59% |
| C[n+]1cccc(C(=O)[O-])c1 [TRI, trigonelline] | – | – | 42.96 | 35.38 | – | 40.43 | decrease in accumulation versus control (CHO-S cells; Cat transfected clone): 27.8% |
